Measured values as given in patent publication US20250154288A1, “CYTOTOXICITY TARGETING CHIMERAS FOR C-C CHEMOKINE RECEPTOR 2-EXPRESSING CELLS” (GLAXOSMITHKLINE INTELLECTUAL PROPERTY DEVELOPMENT LIMITED, priority 2022, published 2025).
Where a name gives a salt, the structure may show the parent alone.

Columns and labels:
[1] = molecular target: T1, CHOK1 cells engineered to overexpress human CCR2 (Homo sapiens, UniProt P41597); test: Antibody Dependent Cellular Cytotoxicity (ADCC) Reporter Assay; assay type: cell-based; conditions: with anti-cotinine antibody (human IgG1 Fc, S239D/I332E); Jurkat FcγRIIIa NFAT-luciferase reporter cells; average if several runs; read-out: ADCC Reporter Assay pEC50 (converted)
T1 construct: expressed in transfected cells; host or cells: CHOK1
Procedure: An antibody dependent cellular cytoxocity reporter assay was conducted using the following four assay components: (i) ARM compound of Formula (I) targeting CCR2 (concentrations ranging from 1 pM to 10 μM) (ii) anti-cotinine antibody having a heavy chain sequence of SEQ ID NO: 11 and a light chain sequence of SEQ ID NO: 12 (rabbit variable region with human IgG1 Fc domain containing a DE mutation (S239D/I332E)) (concentrations ranging from 0.01 μg/mL to 200 μg/mL); (iii) target cells: CHOK1 cells engineered to overexpress either human CCR2 (typically 1000-20,000 cells per well) and (iv) reporter cells: Jurkat cells engineered to express FcγRIIIa with the reporter gene luciferase under the control of the NFAT promoter (typically 3000-75,000 cells per well). Reagents were combined in a final volume of 20 μL in a 384-well tissue culture treated plate. All four assay components were incubated together for about 12-18 hours. Thereafter, BioGlo Detection reagent (Promega) was added to the wells to lyse the cells and provide a substrate for the luciferase reporter protein. Luminescence signal was measured on a microplate reader and signal:background was calculated by dividing the signal of a test well by the signal obtained when no heterobivalent compound of Formula (I) was added. EC50 calculations were done using Graphpad Prism Software, specifically a nonlinear regression curve fit (Y=Bottom+(Top−Bottom)/(1+10 ^((Log EC50−X)*HillSlope))).
ARMs compounds of Formula (I) of the invention were tested for ADCC activity in the above assay in or more experimental runs and the results are shown in Table 3 below. Potency of the compounds of Formula (I) of the invention is reported as a pEC50 value. The pEC50 value is the negative log of the EC50 value, wherein the EC50 value is the half maximal effective concentration measured in molar (M). For compounds tested in more than one experimental run, the pEC50 value is reported as an average.

[2] = molecular target: human alpha1 nicotinic acetylcholine (nACh) receptor (Homo sapiens, UniProt P02708+Q07001); test: Nicotinic Acetylcholine Receptor Antagonism Assay (IONFlux automated patch clamp); assay type: cell-based; conditions: for IC50: antagonism of nAChR stimulated with acetylcholine, average if several runs; for Emax at 100 µM: maximum percentage antagonism at Maximum Concentration of Compound Tested 100 μM
Procedure: Cells expressing human alpha1 nicotinic acetylcholine (nACh) receptor (nAChR) were washed and dissociated using Trypsin containing buffer. Cells were then washed and seeded at a density of 3-5 million cells/mL and allowed to grow for 3 days. Then, 60-80 μL of cells were added to plates and incubated with dose response of an ARM compound of Formula (I) with a top concentration of either 10 μM or 100 μM. The receptor was then stimulated via addition of acetylcholine (ACh) and activation of the receptor was monitored via the IONFlux automated patch clamp system. IonFlux Data Analyzer software was utilized to perform leak subtraction and measure (min) peak current amplitude.
Data processing: (1) Current values recorded for vehicle only applications in individual traps/patterns were subtracted from corresponding current amplitude values for control, test article and control+test article. (2) Control response was calculated as % of the average response of the 3rd out of total 3 ACh (10 mM) applications alone. In rare situations, if the 3rd ACh response was obscured due to technical artifacts, the 2nd and/or 1st ACh (10 mM) application was considered as control. The peak current amplitude generated in the presence of each test article concentration was then used to calculate the % inhibition as compared to control response (10 mM ACh alone). These estimates were further corrected for vehicle response and run down corrected by normalizing with time matched control responses (10 mM ACh alone). The corrected percentages were then fit with a non-linear function in GraphPad Prism 6 (or later versions) to determine the IC50.
Exclusion criteria: (i) any n's with poor recording quality, (ii) control current amplitude <500 pA or (iii) significant outliers, as determined by the Grubbs' test.
ARMs compounds of Formula (I) of the invention were tested for antagonism of the nAChR in the above assay in […] experimental runs and the results are shown in Table 6 below. Antagonistic activity of the compounds of Formula (I) of the invention is reported as an IC50 value (half maximal inhibitory concentration) and the maximum percentage antagonism observed at the highest concentration of compound of Formula (I) tested, as indicated in Table 6. For compounds tested in more than one experimental run, the IC50 value is reported as an average.

human alpha1 nicotinic acetylcholine (nACh) receptor, sequence (P02708 21-457): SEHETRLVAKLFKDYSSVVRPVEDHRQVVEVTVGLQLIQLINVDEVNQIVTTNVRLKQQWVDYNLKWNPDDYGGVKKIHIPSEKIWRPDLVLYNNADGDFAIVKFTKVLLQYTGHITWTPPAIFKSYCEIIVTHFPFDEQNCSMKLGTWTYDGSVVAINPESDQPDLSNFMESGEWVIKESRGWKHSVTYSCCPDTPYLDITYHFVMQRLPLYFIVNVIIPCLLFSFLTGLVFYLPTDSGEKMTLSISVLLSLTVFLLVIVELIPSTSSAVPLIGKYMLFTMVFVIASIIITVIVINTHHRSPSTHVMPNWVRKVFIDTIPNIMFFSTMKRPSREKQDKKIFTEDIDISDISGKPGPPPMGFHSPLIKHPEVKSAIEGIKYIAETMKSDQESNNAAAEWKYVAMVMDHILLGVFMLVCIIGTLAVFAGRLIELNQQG
human alpha1 nicotinic acetylcholine (nACh) receptor, sequence (P11230 24-501 partner): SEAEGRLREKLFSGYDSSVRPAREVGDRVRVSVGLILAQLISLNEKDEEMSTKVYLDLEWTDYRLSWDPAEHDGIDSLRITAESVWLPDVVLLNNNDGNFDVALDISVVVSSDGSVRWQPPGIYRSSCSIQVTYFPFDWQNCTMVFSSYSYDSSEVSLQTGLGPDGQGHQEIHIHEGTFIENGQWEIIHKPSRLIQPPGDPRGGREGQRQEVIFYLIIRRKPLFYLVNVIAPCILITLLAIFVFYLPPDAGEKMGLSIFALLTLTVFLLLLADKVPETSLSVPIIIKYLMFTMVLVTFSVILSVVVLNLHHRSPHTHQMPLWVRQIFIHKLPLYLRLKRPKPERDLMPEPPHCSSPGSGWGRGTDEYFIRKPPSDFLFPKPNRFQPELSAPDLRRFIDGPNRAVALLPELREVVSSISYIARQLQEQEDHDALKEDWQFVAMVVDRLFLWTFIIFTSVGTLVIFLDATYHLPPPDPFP
human alpha1 nicotinic acetylcholine (nACh) receptor, sequence (Q07001 22-517): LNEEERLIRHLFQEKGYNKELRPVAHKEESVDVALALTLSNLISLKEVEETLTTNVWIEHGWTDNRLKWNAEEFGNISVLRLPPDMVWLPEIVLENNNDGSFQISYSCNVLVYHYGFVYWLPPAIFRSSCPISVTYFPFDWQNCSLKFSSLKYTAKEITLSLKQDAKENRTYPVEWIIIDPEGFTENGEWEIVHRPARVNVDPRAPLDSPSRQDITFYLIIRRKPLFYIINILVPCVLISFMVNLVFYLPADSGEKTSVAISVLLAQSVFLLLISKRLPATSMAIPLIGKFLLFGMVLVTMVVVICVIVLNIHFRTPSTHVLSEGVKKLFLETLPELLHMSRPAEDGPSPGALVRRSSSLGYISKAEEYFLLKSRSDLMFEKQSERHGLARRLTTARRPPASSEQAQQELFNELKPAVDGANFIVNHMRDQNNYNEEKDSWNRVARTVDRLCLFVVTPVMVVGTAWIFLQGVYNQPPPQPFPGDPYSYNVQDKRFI

| Emax at 10 µM ([2]; maximum percentage antagonism at Maximum Concentration of Compound Tested 10 μM, read-out: Maximum Response (%)) | SMILES | EC50 [1] | IC50 [2] | Emax at 100 µM ([2]; read-out: Maximum Response (%)) |
| --- | --- | --- | --- | --- |
|  | CO[C@@H]1COCC[C@@H]1N[C@@H]1CC[C@@](C(=O)N2Cc3cc(C(F)(F)F)cnc3[C@H](NC(=O)CCOCCOCCOCCOCCOCCOCCOCCOCCOCCOCCOCCOCCNC(=O)[C@H]3CC(=O)N(C)[C@@H]3c3cccnc3)C2)(C(C)C)C1 [Example 23, (2S,3S)—N-(39-(((R)-6-((1S,3R)-1-Isopropyl-3-(((3S,4S)-3-methoxytetrahydro-2H-pyran-4-yl)amino)cyclopentane-1-carbonyl)-3-(trifluoromethyl)-5,6,7,8-tetrahydro-1,6-naphthyridin-8-yl)amino)-39-oxo-3,6,9,12,15,18,21,24,27,30,33,36-dodecaoxanonatriacontyl)-1-methyl-5-oxo-2-(pyridin-3-yl)pyrrolidine-3-carboxamide, 3Formic acid salt] | 0.398 nM |  |  |
|  | CO[C@@H]1COCC[C@@H]1N[C@@H]1CC[C@](CCCCNC(=O)[C@H]2CC[C@H](NC(=O)CCCO[C@H]3CC[C@@H](OCCNC(=O)[C@H]4CC(=O)N(C)[C@@H]4c4cccnc4)CC3)CC2)(C(=O)N2CCc3ncc(C(F)(F)F)cc3C2)C1 [Example 10, (2S,3S)-N-(2-(((1S,4R)-4-(4-(((1S,4R)-4-((4-((1S,3R)-3-(((3S,4S)-3-Methoxytetrahydro-2H-pyran-4-yl)amino)-1-(3-(trifluoromethyl)-5,6,7,8-tetrahydro-1,6-naphthyridine-6-carbonyl)cyclopentyl)butyl)carbamoyl)cyclohexyl)amino)-4-oxobutoxy)cyclohexyl)oxy)ethyl)-1-methyl-5-oxo-2-(pyridin-3-yl)pyrrolidine-3-carboxamide] | 1.26 nM | > 100 µM | 26% |
|  | CO[C@@H]1COCC[C@@H]1N[C@@H]1CC[C@](CCCNC(=O)[C@H]2CC[C@@H](NC(=O)CCCO[C@H]3CC[C@H](OCCNC(=O)[C@H]4CC(=O)N(C)[C@@H]4c4cccnc4)CC3)CC2)(C(=O)N2CCc3ncc(C(F)(F)F)cc3C2)C1 [Example 6, (2S,3S)-N-(2-(((1R,4S)-4-(4-(((1R,4S)-4-((3-((1S,3R)-3-(((3S,4S)-3-Methoxytetrahydro-2H-pyran-4-yl)amino)-1-(3-(trifluoromethyl)-5,6,7,8-tetrahydro-1,6-naphthyridine-6-carbonyl)cyclopentyl)propyl)carbamoyl)cyclohexyl)amino)-4-oxobutoxy)cyclohexyl)oxy)ethyl)-1-methyl-5-oxo-2-(pyridin-3-yl)pyrrolidine-3-carboxamide, Formic acid salt] | 0.794 nM | > 100 µM | 31% |
|  | CO[C@@H]1COCC[C@@H]1N(CCCNC(=O)[C@H]1CC[C@H](NC(=O)CCCO[C@H]2CC[C@H](OCCNC(=O)[C@H]3CC(=O)N(C)[C@@H]3c3cccnc3)CC2)CC1)[C@@H]1CC[C@@](C(=O)N2CCc3ncc(C(F)(F)F)cc3C2)(C(C)C)C1 [Example 13, (2S,3S)-N-(2-(((1R,4S)-4-(4-(((1S,4R)-4-((3-(((1R,3S)-3-isopropyl-3-(3-(trifluoromethyl)-5,6,7,8-tetrahydro-1,6-naphthyridine-6-carbonyl)cyclopentyl)((3S,4S)-3-methoxytetrahydro-2H-pyran-4-yl)amino)propyl)carbamoyl)cyclohexyl)amino)-4-oxobutoxy)cyclohexyl)oxy)ethyl)-1-methyl-5-oxo-2-(pyridin-3-yl)pyrrolidine-3-carboxamide] | 0.794 nM | > 100 µM | 37% |
|  | CO[C@@H]1COCC[C@@H]1N[C@@H]1CC[C@](CCCNC(=O)[C@H]2CC[C@@H](NC(=O)CCCC(=O)NCCCC(=O)NCCCNC(=O)[C@H]3CC(=O)N(C)[C@@H]3c3cccnc3)CC2)(C(=O)N2CCc3ncc(C(F)(F)F)cc3C2)C1 [Example 16, N-((1R,4s)-4-((3-((1S,3R)-3-(((3S,4S)-3-Methoxytetrahydro-2H-pyran-4-yl)amino)-1-(3-(trifluoromethyl)-5,6,7,8-tetrahydro-1,6-naphthyridine-6-carbonyl)cyclopentyl)propyl)carbamoyl)cyclohexyl)-N-(4-((3-((2S,3S)-1-methyl-5-oxo-2-(pyridin-3-yl)pyrolidine-3-carboxamido)propyl)amino)-4-oxobutyl)glutaramide] | 0.631 nM | 71.1 µM | 64% |
| 22% | CO[C@@H]1COCC[C@@H]1N[C@@H]1CC[C@](CCCCNC(=O)CCOCCOCCO[C@H]2CC[C@H](OCCNC(=O)[C@H]3CC(=O)N(C)[C@@H]3c3cccnc3)CC2)(C(=O)N2CCc3ncc(C(F)(F)F)cc3C2)C1 [Example 21, (2S,3S)-N-(2-(((1r,4S)-4-(2-(2-(3-((4-((1S,3R)-3-(((3S,4S)-3-Methoxytetrahydro-2H-pyran-4-yl)amino)-1-(3-(trifluoromethyl)-5,6,7,8-tetrahydro-1,6-naphthyridine-6-carbonyl)cyclopentyl)butyl)amino)-3-oxopropoxy)ethoxy)ethoxy)cyclohexyl)oxy)ethyl)-1-methyl-5-oxo-2-(pyridin-3-yl)pyrrolidine-3-carboxamide, Formic acid salt] | 6.31 nM | > 10 µM |  |
|  | CO[C@@H]1COCC[C@@H]1N[C@@H]1CC[C@@](C(=O)N2Cc3cc(C(F)(F)F)cnc3[C@@H](NC(=O)CCOCCOCCOCCOCCOCCOCCOCCOCCOCCOCCOCCOCCNC(=O)[C@H]3CC(=O)N(C)[C@@H]3c3cccnc3)C2)(C(C)C)C1 (stereo in doubt) [Example 24, (2S,3S)-N-(39-(((S)-6-((1S,3R)-1-Isopropyl-3-(((3S,4S)-3-methoxytetrahydro-2H-pyran-4-yl)amino)cyclopentane-1-carbonyl)-3-(trifluoromethyl)-5,6,7,8-tetrahydro-1,6-naphthyridin-8-yl)amino)-39-oxo-3,6,9,12,15,18,21,24,27,30,33,36-dodecaoxanonatriacontyl)-1-methyl-5-oxo-2-(pyridin-3-yl)pyrrolidine-3-carboxamide, 3Formic acid salt] | 1 nM |  |  |
|  | CO[C@@H]1COCC[C@@H]1N[C@@H]1CC[C@](CCCCNC(=O)[C@H]2CC[C@@H](NC(=O)CCOCCOCCOCCNC(=O)[C@H]3CC(=O)N(C)[C@@H]3c3cccnc3)CC2)(C(=O)N2CCc3ncc(C(F)(F)F)cc3C2)C1 [Example 18, (2S,3S)-N-(2-(2-(2-(3-(((1R,4s)-4-((4-((1S,3R)-3-(((3S,4S)-3-Methoxytetrahydro-2H-pyran-4-yl)amino)-1-(3-(trifluoromethyl)-5,6,7,8-tetrahydro-1,6-naphthyridine-6-carbonyl)cyclopentyl)butyl)carbamoyl)cyclohexyl)amino)-3-oxopropoxy)ethoxy)ethoxy)ethyl)-1-methyl-5-oxo-2-(pyridin-3-yl)pyrrolidine-3-carboxamide, Formic acid salt] | 5.01 nM |  |  |
